These results are taken from patent publication US12421254B2, “KRAS modulators and uses thereof” (Quanta Therapeutics, Inc., priority 2023, dated 2025).

Read-outs that look alike come from different tables or passages of the source.

For experiment [1], the target named is GST-tagged KRAS-G12D (2-169) (Homo sapiens, UniProt P01116, G12D). Put plainly: Nucleotide exchange assay (NEA), SOS-mediated, HTRF, KRAS G12D. It is filed as biochemical. Conditions: IC50 extracted at 30 min, 20 nM SOScat. From the text:
(§1) This activity is tightly regulated by GTPase activating proteins (GAPs) and guanine nucleotide exchange factors (GEFs). GEFs, such as SOS1/2, activate Ras proteins by exchanging GDP for GTP, thus returning Ras to its active conformation (Simanshu, Nissley, & McCormick, 2017). […] Homogenous time resolved fluorescence (HTRF) was used to detect SOS-mediated binding of a fluorescent GTP analog, GTP-DY-647P1 (Jena Biosciences NU-820-647P1) to GST-tagged KRAS-G12D (2-169) or to GST-tagged KRAS-G12V (2-169, Reaction Biology, MSC-11-540).
(§2) GST-tagged KRAS-G12D (2-169) and anti-GST MAb Tb Cryptate Gold (CisBio 61GSTTLB) were diluted into assay buffer (20 mM HEPES, pH 7.3, 150 mM NaCl, 5 mM MgCl2, 0.05% BSA 0.0025% NP40, 1 mM DTT) to prepare a 2.5× donor solution. 5× compound was added to the protein mixture and incubated for 1 h at RT. 2.5× acceptor solution containing SOS1cat (564-1049, Reaction Biology MSC-11-502) and GTP-DY-647P1 were then added to the donor KRAS mixture such that the final concentration of the reaction contained 0.25 nM GST-tagged KRAS-G12D (2-169), 20 nM SOScat, and 150 nM GTP-DY-647P1. The reaction was monitored using at RT with the Envision multimode plate reader (Ex/Em 337/665, […]) up to 90 minutes at 5 minute intervals. To monitor KRAS-G12V SOS-mediated nucleotide exchange, 80 nM SOS was added to reaction instead of 20 nM. All other components were the same as previously described. Data was blanked to reactions without SOS1 and % inhibition was calculated such that DMSO only =0% and blank=100%. Curve fitting was done using a 4 parameter fit. Reported IC50 values were extracted at 30 min and 90 min for the KRAS-G12D and KRAS-G12V assays, respectively.
NEA KRAS G12D IC50 (uM) values of selected compounds are depicted in Table 2 with compounds having a value <0.01 uM as ++++; ≥0.01 uM to 0.1 uM as +++; ≥0.1 uM to 1 uM as ++; ≥1 uM to 20 uM as +; and ≥20 uM as NA.
In general terms: TR-FRET usually uses a lanthanide donor and a delayed reading to cut background.

Experiment [2] deals with GST-tagged KRAS-G12V (2-169) (Homo sapiens, UniProt P01116, G12V). Put plainly: Nucleotide exchange assay (NEA), SOS-mediated, HTRF, KRAS G12V. It is filed as biochemical. Conditions: Table 4; IC50 extracted at 90 min; 80 nM SOS.
Description: as §1, §2

Setting [3] is: Table 4, read-out: NEA G12D IC50.

Chain of GST-tagged KRAS-G12D (2-169) (P01116 2-169 isoform P01116-2 G12D): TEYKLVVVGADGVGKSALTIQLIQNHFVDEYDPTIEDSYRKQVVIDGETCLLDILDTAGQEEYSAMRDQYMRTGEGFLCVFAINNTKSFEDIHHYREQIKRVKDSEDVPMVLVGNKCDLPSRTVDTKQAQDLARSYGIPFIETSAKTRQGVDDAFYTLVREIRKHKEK
Chain of GST-tagged KRAS-G12V (2-169) (P01116 2-169 isoform P01116-2 G12V): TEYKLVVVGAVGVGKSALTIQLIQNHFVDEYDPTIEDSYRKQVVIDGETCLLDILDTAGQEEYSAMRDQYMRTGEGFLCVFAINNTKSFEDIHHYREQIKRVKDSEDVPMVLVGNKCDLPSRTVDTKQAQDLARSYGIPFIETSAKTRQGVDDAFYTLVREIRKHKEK

In general, IC50 refers to the concentration at which inhibition is half-maximal. Consider `COC[C@@H]1CC[C@@H](COc2nc(N3CC4(C3)SCc3sc(N)c(C#N)c34)nc(N(CC(F)F)C(C)c3cccnc3N)n2)N1` (mixture of isomers) [Compound 211, 2-amino-1′-[4-[[(1R)-1-(2-amino-3-pyridyl)ethyl]-(2,2-difluoroethyl)amino]-6-[[(2SR,5SR)-5-(methoxymethyl)pyrrolidin-2-yl]methoxy]-1,3,5-triazin-2-yl]spiro[6H-thieno[3,4-b]thiophene-4,3′-azetidine]-3-carbonitrile], for which the IC50 is less than 0.01 µM in experiment [1] (setting [3]) and less than 10 nM in experiment [2]. Taken in the same sequence, the figures for `CCN(c1nc(OC[C@@H]2CC[C@@H]3CN(C)CCN32)nc(N2CC3(C2)SCc2sc(N)c(C#N)c23)n1)[C@H](C)c1cccnc1N` (mixture of isomers) [Compound 216, 1′-[4-[[(6SR,8aRS)-2-methyl-3,4,6,7,8,8a-hexahydro-1H-pyrrolo[1,2-a]pyrazin-6-yl]methoxy]-6-[[(1R)-1-(2-amino-3-pyridyl)ethyl]-ethyl-amino]-1,3,5-triazin-2-yl]-2-amino-spiro[6H-thieno[3,4-b]thiophene-4,3′-azetidine]-3-carbonitrile] were 0.1 to 1 µM and less than 10 nM.

`N#Cc1c(N)sc2c1C1(CN(c3nc(OCC45CCCN4CC(F)C5)nc(N4C5CCC4C(O)C5)n3)C1)SC2` (mixture of isomers) [Compound 282, 2-amino-1′-[4-[[(2R,8S)-2-fluoro-1,2,3,5,6,7-hexahydropyrrolizin-8-yl]methoxy]-6-[(1RS,2SR,4SR)-2-hydroxy-7-azabicyclo[2.2.1]heptan-7-yl]-1,3,5-triazin-2-yl]spiro[6H-thieno[3,4-b]thiophene-4,3′-azetidine]-3-carbonitrile]: the results for the IC50 in experiment [1] (setting [3]) and in experiment [2] were 0.1 to 1 µM and 10 to 100 nM, respectively. The corresponding values for `N#Cc1c(N)sc2c1C1(CC2)CN(c2nc(OC[C@@]34CCCN3C[C@H](F)C4)nc(O[C@@H]3COC[C@@H]3O)n2)C1` (racemic) [Compound 28, 2-amino-1′-[4-[[(2R,8S)-2-fluoro-1,2,3,5,6,7-hexahydropyrrolizin-8-yl]methoxy]-6-[rac-(3R,4S)-4-hydroxytetrahydrofuran-3-yl]oxy-1,3,5-triazin-2-yl]spiro[5,6-dihydrocyclopenta[b]thiophene-4,3′-azetidine]-3-carbonitrile] are 1 to 20 µM and 100 to 1000 nM. Taken in the same sequence, the figures for `C[C@@H]1[C@H](C#N)CCCN1c1nc(OC[C@@]23CCCN2C[C@H](F)C3)nc(N2CC3(CCc4sc(N)c(C#N)c43)C2)n1` (racemic) [Compound 29, 2-amino-1′-[4-[rac-(2R,3R)-3-cyano-2-methyl-1-piperidyl]-6-[[(2R,8S)-2-fluoro-1,2,3,5,6,7-hexahydropyrrolizin-8-yl]methoxy]-1,3,5-triazin-2-yl]spiro[5,6-dihydrocyclopenta[b]thiophene-4,3′-azetidine]-3-carbonitrile] were 0.1 to 1 µM and 100 to 1000 nM. Taken in the same sequence, the figures for `CN(c1nc(OC[C@@]23CCCN2C[C@H](F)C3)nc(N2CC3(CCc4sc(N)c(C#N)c43)C2)n1)[C@H]1COC[C@H]1O` (racemic) [Compound 53, 2-amino-1′-[4-[[(2R,8S)-2-fluoro-1,2,3,5,6,7-hexahydropyrrolizin-8-yl]methoxy]-6-[[rac-(3S,4S)-4-hydroxytetrahydrofuran-3-yl]-methyl-amino]-1,3,5-triazin-2-yl]spiro[5,6-dihydrocyclopenta[b]thiophene-4,3′-azetidine]-3-carbonitrile] were 1 to 20 µM and 100 to 1000 nM.

For `N#Cc1c(N)sc2c1C1(CC2)CN(c2nc(OC[C@@]34CCCN3C[C@H](F)C4)nc(O[C@@H]3COC[C@H]3O)n2)C1` (racemic) [Compound 80, 2-amino-1′-[4-[[(2R,8S)-2-fluoro-1,2,3,5,6,7-hexahydropyrrolizin-8-yl]methoxy]-6-[rac-(3R,4R)-4-hydroxytetrahydrofuran-3-yl]oxy-1,3,5-triazin-2-yl]spiro[5,6-dihydrocyclopenta[b]thiophene-4,3′-azetidine]-3-carbonitrile; 2,2,2-trifluoroacetic acid], in experiment [2], the IC50 lay in the range of 1000 to 20000 nM.

With `C[C@@]1(O)CCCN(c2nc(OC[C@@]34CCCN3[C@H](COc3cc(C(F)(F)F)ncn3)CC4)nc(N3CC4(C3)SCc3sc(N)c(C#N)c34)n2)C1` (racemic) [Compound 253, 2-amino-1′-[4-[(3R)-3-hydroxy-3-methyl-1-piperidyl]-6-[[(3SR,8SR)-3-[[6-(trifluoromethyl)pyrimidin-4-yl]oxymethyl]-1,2,3,5,6,7-hexahydropyrrolizin-8-yl]methoxy]-1,3,5-triazin-2-yl]spiro[6H-thieno[3,4-b]thiophene-4,3′-azetidine]-3-carbonitrile], the IC50 in experiment [2] is less than 10 nM. As for `N#Cc1c(N)sc2c1C1(CN(c3nc(OC[C@@]45CCCN4C[C@H](F)C5)nc(N4[C@H]5CC[C@@H]4[C@H](C#N)C5)n3)C1)SC2` (racemic) [Compound 279, 2-amino-1′-[4-[(1RS,2RS,4SR)-2-cyano-7-azabicyclo[2.2.1]heptan-7-yl]-6-[[(2R,8S)-2-fluoro-1,2,3,5,6,7-hexahydropyrrolizin-8-yl]methoxy]-1,3,5-triazin-2-yl]spiro[6H-thieno[3,4-b]thiophene-4,3′-azetidine]-3-carbonitrile], the IC50 in experiment [1] (setting [3]) was 0.1 to 1 µM. Same read-out and setting: with `CC1(O)CCCN(c2nc(OCC34CCCN3C(COc3cc(C(F)(F)F)ncn3)CC4)nc(N3CC4(C3)SCc3sc(N)c(C#N)c34)n2)C1` (single isomer, unassigned) [Compound 256B] the figure was less than 0.01 µM.

Regarding `N#Cc1c(N)sc2c1C1(CCC2)CN(c2nc(OCC3(CN4CCOCC4)CC3)nc(N3CCC[C@]4(C3)NC(=O)NC4=O)n2)C1` [Compound 6, 2-amino-1′-[4-[[1-(morpholinomethyl)cyclopropyl]methoxy]-6-[(5R)-2,4-dioxo-1,3,9-triazaspiro[4.5]decan-9-yl]-1,3,5-triazin-2-yl]spiro[6,7-dihydro-5H-benzothiophene-4,3′-azetidine]-3-carbonitrile], the IC50 in experiment [1] (Table 2, read-out: NEA-G12D (uM) IC50) lay in the range of 0.01 to 0.1 µM.

The compound `N#Cc1c(N)sc2c1C1(CN(c3nc(OC[C@@]45CCCN4C[C@H](F)C5)nc(N4CCC5(CCN5C(=O)n5cncn5)C4)n3)C1)SC2` (stereo partly drawn) [Compound 248, 2-amino-1′-[4-[[(2R,8S)-2-fluoro-1,2,3,5,6,7-hexahydropyrrolizin-8-yl]methoxy]-6-[1-(1,2,4-triazole-1-carbonyl)-1,7-diazaspiro[3.4]octan-7-yl]-1,3,5-triazin-2-yl]spiro[6H-thieno[2,3-c]thiophene-4,3′-azetidine]-3-carbonitrile] registered an IC50 in experiment [2] of 1000 to 20000 nM. For `N#Cc1c(N)sc2c1C1(CN(c3nc(OC[C@@]45CCCN4C[C@H](F)C5)nc(N4[C@H]5CC[C@@H]4C(=O)C5)n3)C1)SC2` [Compound 280, 2-amino-1′-[4-[[(2R,8S)-2-fluoro-1,2,3,5,6,7-hexahydropyrrolizin-8-yl]methoxy]-6-(2-oxo-7-azabicyclo[2.2.1]heptan-7-yl)-1,3,5-triazin-2-yl]spiro[6H-thieno[3,4-b]thiophene-4,3′-azetidine]-3-carbonitrile], the IC50 in experiment [1] (setting [3]) lay in the range of 0.01 to 0.1 µM.
